The text below walks through data of patent publication US20020061862A1, “Inducible nitric oxide synthase for treatment of disease” (University of Pittsburgh of the Commonwealth System of …, priority 1992, published 2002).

Each structure is given as a SMILES string.

Test [1] concerns ecNOS mRNA and protein in SPAEC. Put plainly: Northern and Western blot for ecNOS expression in SPAEC. It is filed as cell-based, sheep. The conditions noted are these: 1 mM, 6 h, versus SPAEC treated with the parent compound. Here is the method: Aliquots (20 μg) of RNA were electrophoresed on a 0.9% agarose gel and blotted to GeneScreen (DuPontNEN; Boston, Mass.). After prehybridization, the membranes were hybridized to a DNA probe as described (Geller, et al., 1993, Proc. Natl. Acad. Sci. USA 90:522-526). A 2.3 kb human iNOS cDNA fragment served as the iNOS probe while a 4.1 kb human endothelial cNOS cDNA fragment served as the ecNOS probe. 18S rRNA served as a control for relative RNA loading.
The cells were lysed by three freeze-thaw cycles, and the cytosolic fraction was isolated by centrifugation at 100,000×g for 60 min at 4° C. as previously described (Luss, et al., 1994, Biochem. Biophys. Res. Comm. 204-2: 635-640). Protein concentrations were measured with the BCA protein assay (Pierce; Rockford, Ill.). For whole cell preparations, a similar procedure was performed without the centrifugation step.
Cell cytosols (100μg) were electrophoresed through an 8% SDS-polyacrylamide gel and transferred to nitrocellulose membranes (Schleicher Schuell; Keene, N.H.) as described (Laemmli, 1970, Nature 227: 680-685). […]
A general note: Immunoblotting shows a protein as a band on a membrane.

The subject of test [2] is sheep pulmonary artery endothelial cells (SPAEC). It is filed as cell-based. The conditions noted are these: L-NMA 0.5 mM, BH4 100 μM.
Another test relates to 3T3-iNOS cells. Put plainly: NO2- production (iNOS activity) in transfected 3T3-iNOS cells. It is filed as cell-based, murine. The conditions noted are these: MTX 12.5 μM. The procedure: Cells were passaged to 6 well plates at a density of 1×10^5 cells/well 24 h prior to transfection. For 3T3 cells, each well of cells was transfected with a mixture of 1 μg plasmid DNA and 6 μg of Lipofectamine (GIBCO) in OPTIMEM-I media for 5 h. For RSMC, a ratio of 1 μg DNA to 7 μl of Lipofectamine was used. Following the incubation period, the transfection solution was removed and normal growth medium replaced. The transfection efficiency was estimated by X-gal staining of pIEP-lacZ transfected cells. All studies were performed at 24-72 h post-transfection.
Twenty four hours following transfection, the cell medium was then replaced with fresh medium and the cells were cultured for an additional 24 h at which time the supernatants were assayed for accumulated NO2 using the Griess reaction (Geller, et al., 1993, Proc. Natl. Acad. Sci. USA: 90:522-526). Measurements were also performed in the presence of L-NMA (1 mM), BH4 (100 μM), and methotrexate (MTX 12.5 μM). The cells were lysed with 0.1 M NaOH and the protein concentration was quantified with the BCA protein assay. To assess the requirement for compression of GTPCH and iNOS in the same cell, 3T3 cells were transfected with either pIEPlacZ or pCIS-GTPCH. […] Cells were allowed to attach overnight and NO2− levels were measured 24 h later.

As to `CC(=O)N[C@H](C(=O)O)C(C)(C)SN=O` [SNAP, S-nitroso-N-acetyl-penicillamine], in test [1], the “increase in ecNOS mRNA” value came out at 1.5 fold.

As for `CNC(=N)NCCC[C@H](N)C(=O)O` [L-NMA, N^G-monomethyl-L-arginine], the “effect of agent added to culture medium on nitrogen oxide synthesis / NO2^− production of SPAEC/DFG-iNOS-Neo” value in test [2] is “inhibited”.

Consider `CN(Cc1cnc2nc(N)nc(N)c2n1)c1ccc(C(=O)N[C@@H](CCC(=O)O)C(=O)O)cc1` [MTX, methotrexate], for which, in the test with 3T3-iNOS cells (3T3-iNOS, FIG. 23), the “reduction of iNOS activity recovered by BH4 supplementation” value was “over 5 fold”. In the test on 3T3-iNOS cells (pCIS-GTPCH transfected 3T3iNOS cells), the “reduction of iNOS activity” value is 50%.
